The results in this text go back to patent EP1976513B1 (priority 2006, dated 2007).

The target of experiment [1] is human serotonin reuptake transporter (Homo sapiens, UniProt P31645). The experiment is described as follows: cell-based.
Experiment [2] concerns the target T1, human dopamine reuptake transporter (Homo sapiens, UniProt Q01959).
T1 construct: expressed in transfected cells; host or cells: CHO-K1 or HEK293
Put plainly: cell-based.

[3] abbreviates: recombinant human serotonin transporter (SERT), read-out: Human IC50 (nM) hSERT.
The mark [4] stands for this setting: read-out: Human IC50 (nM) hSERT.
Setting [5] is: recombinant human dopamine transporter (DAT), read-out: Human IC50 (nM) hDAT.
The mark [6] stands for this setting: Human IC50 (nM) hSERT, recombinant human serotonin transporter (SERT).

Several values for one entry are separate records, joined by “and”; a condition that tells them apart may be missing. Equal values may be shown once. Read-outs that look alike come from different tables or passages of the source. Some results are limits rather than exact numbers.

The term IC50 denotes the concentration at which inhibition is half-maximal.

T1 sequence (Q01959 whole entry): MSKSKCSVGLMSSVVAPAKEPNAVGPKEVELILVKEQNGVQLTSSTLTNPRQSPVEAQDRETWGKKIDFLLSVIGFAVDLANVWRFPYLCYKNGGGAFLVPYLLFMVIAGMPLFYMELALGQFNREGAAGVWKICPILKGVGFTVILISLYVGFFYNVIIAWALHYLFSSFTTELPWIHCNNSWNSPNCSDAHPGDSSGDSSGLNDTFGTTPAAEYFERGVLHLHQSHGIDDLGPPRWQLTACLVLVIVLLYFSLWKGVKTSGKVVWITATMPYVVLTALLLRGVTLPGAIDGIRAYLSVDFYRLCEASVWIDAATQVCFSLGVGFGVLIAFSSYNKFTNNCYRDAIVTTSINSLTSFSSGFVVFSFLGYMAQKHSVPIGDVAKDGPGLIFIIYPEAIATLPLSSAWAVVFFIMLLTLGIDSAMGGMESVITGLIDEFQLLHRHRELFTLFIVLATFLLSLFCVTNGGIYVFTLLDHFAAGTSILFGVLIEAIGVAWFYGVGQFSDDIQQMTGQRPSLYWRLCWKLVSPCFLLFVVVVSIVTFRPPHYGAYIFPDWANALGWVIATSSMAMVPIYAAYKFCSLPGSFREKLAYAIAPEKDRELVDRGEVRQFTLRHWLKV
human serotonin reuptake transporter, sequence (P31645 whole entry): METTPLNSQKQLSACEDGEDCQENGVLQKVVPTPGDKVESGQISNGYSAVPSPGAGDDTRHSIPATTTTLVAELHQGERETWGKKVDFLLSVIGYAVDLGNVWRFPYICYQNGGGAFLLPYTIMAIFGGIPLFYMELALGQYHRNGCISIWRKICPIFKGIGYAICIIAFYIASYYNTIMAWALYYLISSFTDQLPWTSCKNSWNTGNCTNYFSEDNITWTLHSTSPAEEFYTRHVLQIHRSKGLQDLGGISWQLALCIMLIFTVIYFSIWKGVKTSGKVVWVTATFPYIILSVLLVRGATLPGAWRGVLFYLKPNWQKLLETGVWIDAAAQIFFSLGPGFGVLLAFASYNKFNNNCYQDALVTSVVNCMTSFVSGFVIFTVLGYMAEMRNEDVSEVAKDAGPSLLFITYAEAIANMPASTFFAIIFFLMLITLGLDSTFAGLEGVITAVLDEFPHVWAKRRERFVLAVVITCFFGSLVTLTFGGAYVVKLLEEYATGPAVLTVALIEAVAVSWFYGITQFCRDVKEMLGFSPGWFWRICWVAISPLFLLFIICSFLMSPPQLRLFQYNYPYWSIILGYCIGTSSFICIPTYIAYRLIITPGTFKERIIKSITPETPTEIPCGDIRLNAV

Turning to `CN(C)CC1(c2ccc3ccccc3c2)CCC(O)CC1` (stereo not drawn) [Compound 229, 4-((dimethylamino)methyl)-4-(naphthalen-2-yl)cyclohexanol], the IC50 in experiment [1] (setting [3]) is 11 nM; in experiment [2] (read-out: Human IC50 (nM) hDAT), 40 nM.

Consider `CN(C)CC1(c2ccc(Cl)c(Cl)c2)CCC2(CC1)OCCO2` [Compound 271, 1-(8-(3,4-dichlorophenyl)-1,4-dioxaspiro[4.5]decan-8-yl)-N,N-dimethylmethanamine], for which the IC50 was found to be 79 nM in experiment [1] (setting [4]) and 197 nM in experiment [2] (setting [5]).

On to `CN(C)CC1(c2ccc3ccccc3c2)CCC(O)CC1` (stereo not drawn) [Compound 228, 4-((dimethylamino)methyl)-4-(naphthalen-2-yl)cyclohexanol], for which the IC50 turned out to be 96 nM in experiment [1] (setting [3]) and 1560 nM in experiment [2] (read-out: Human IC50 (nM) hDAT).

For the compound `CNCC1(c2ccc3cc(F)ccc3c2)CCCCC1` [Compound 67, 1-(1-(6-fluoronaphthalen-2-yl)cyclohexyl)-N-methylmethanamine], the IC50 was determined as 230 nM in experiment [1] (setting [6]) and 1760 nM in experiment [2] (setting [5]).

Turning to `CN(C)CC1(c2ccc3ccccc3c2)CCC(O)(CF)CC1` (stereo not drawn) [Compound 246, 4-((dimethylamino)methyl)-1-(fluoromethyl)-4-(naphthalen-2-yl)cyclohexanol], the results for the IC50 in experiment [1] (setting [3]) and in experiment [2] (setting [5]) were 43 nM and 282 nM, respectively.

`NCC1(c2ccc3c(c2)OCO3)CCCCC1` [Compound 35, (1-(benzo[d][1,3]dioxol-5-yl)cyclohexyl)methanamine]: the IC50 in experiment [1] (setting [6]) is more than 10000 nM; in experiment [2] (setting [5]), 4710 nM.

For `CNCC1(c2ccc3ccccc3c2)CCC(C)(O)CC1` (stereo not drawn) [Compound 223, 1-methyl-4-((methylamino)methyl)-4-(naphthalen-2-yl)cyclohexanol], the IC50 in experiment [1] (setting [3]) stood at 73 nM; in experiment [2] (read-out: Human IC50 (nM) hDAT), 874 nM.

In the case of `CN(C)CC1(c2ccc3ccccc3c2)CCC(F)CC1` (stereo not drawn) [Compound 233, 1-(4-fluoro-1-(naphthalen-2-yl)cyclohexyl)-N,N-dimethylmethanamine], the IC50 in experiment [1] (setting [3]) was found to be 37 nM; in experiment [2] (setting [5]) it was 3 nM.

On to `NCC1(c2ccc3ccccc3c2)CCC(F)(F)CC1` [Compound 221, (4,4-difluoro-1-(naphthalen-2-yl)cyclohexyl)methanamine], for which the IC50 in experiment [1] (setting [3]) turned out to be 61 nM; in experiment [2] (setting [5]) it was 182 nM.

In the case of `NCC1(c2ccc3ccccc3c2)CCC(O)(CF)CC1` (stereo not drawn) [Compound 218, 4-(aminomethyl)-1-(fluoromethyl)-4-(naphthalen-2-yl)cyclohexanol], the results for the IC50 in experiment [1] (setting [3]) and in experiment [2] (setting [5]) were 480 nM and 5590 nM, respectively.

Consider `NCC1(c2ccc(OC(F)(F)F)cc2)CCC(O)CC1` (stereo not drawn) [Compound 220, 4-(aminomethyl)-4-(4-(trifluoromethoxy)phenyl)cyclohexanol], for which the IC50 was 6150 nM in experiment [1] (setting [3]) and more than 10000 nM in experiment [2] (setting [5]).

`CC(N(C)C)C1(c2ccc3ccccc3c2)CCC(C)(O)CC1` (single isomer, unassigned) [234 E1, 4-(1-(dimethylamino)ethyl)-1-methyl-4-(naphthalen-2-yl)cyclohexanol]: the IC50 in experiment [1] (setting [3]) amounted to 3380 nM; in experiment [2] (setting [5]), 346 nM.

As for `COC1CCC(CN)(c2ccc(Cl)c(Cl)c2)CC1` (stereo not drawn) [Compound 257, (1-(3,4-dichlorophenyl)-4-methoxycyclohexyl)methanamine], the IC50 in experiment [1] (setting [3]) amounted to 2080 nM; in experiment [2] (setting [5]), 2000 nM.

As for `CNCC1(c2ccc(Cl)c(Cl)c2)CCC(C)(O)CC1` (stereo not drawn) [Compound 273, 4-(3,4-dichlorophenyl)-1-methyl-4-((methylamino)methyl)cyclohexanol], the IC50 came to 830 nM in experiment [1] (setting [3]) and 528 nM in experiment [2] (setting [5]).

With `CNCC1(c2ccc3ccccc3c2)CCC(C)(O)CC1` (stereo not drawn) [Compound 222, 1-methyl-4-((methylamino)methyl)-4-(naphthalen-2-yl)-cyclohexanol], the IC50 was determined as 609 nM in experiment [1] (setting [3]) and 2090 nM in experiment [2] (read-out: Human IC50 (nM) hDAT).

On to `CNCC1(c2ccc(OC)cc2)CCCCC1O` (single isomer, unassigned) [139 E1, cis-2-((methylamino)methyl)-2-(4-methoxyphenyl)cyclohexanol], for which the IC50 in experiment [1] (setting [3]) and in experiment [2] (setting [5]) was more than 10000 nM each time.

For the compound `CN(C)CC1(c2ccc3cc(F)ccc3c2)CCCCC1` [Compound 68, 1-(1-(6-fluoronaphthalen-2-yl)cyclohexyl)-N,N-dimethylmethanamine], the IC50 in experiment [1] (setting [3]) was 19 nM; in experiment [2] (setting [5]), 343 nM.

As to `OC1CCCCC1NCC1(c2ccc(Cl)c(Cl)c2)CCCCC1` (racemic) [Compound 117, 2-((1-(3,4-dichlorophenyl)cyclohexyl)methylamino)cyclohexanol], the IC50 in experiment [1] (setting [3]) worked out at 7900 nM; in experiment [2] (setting [5]) it was 33 nM.

Consider `CCC1(O)CCC(CN(C)C)(c2ccc(Cl)c(Cl)c2)CC1` (stereo not drawn) [Compound 283, 4-(3,4-dichlorophenyl)-4-((dimethylamino)methyl)-1-ethylcyclohexanol], for which the figures for the IC50 in experiment [1] (setting [3]) and in experiment [2] (setting [5]) were 20 nM and 37 nM, respectively.

Consider `CN(C)CC1(c2ccc(Cl)c(Cl)c2)CCC(F)CC1` (stereo not drawn) [Compound 261, 1-(1-(3,4-dichlorophenyl)-4-fluorocyclohexyl)-N,N-dimethylmethanamine], for which the figures for the IC50 in experiment [1] (setting [4]) and in experiment [2] (Human IC50 (nM) hDAT) were 30 nM and 7 nM, respectively.

Regarding `CNCC1(c2ccc(F)c3ccccc23)CCCCC1` [Compound 69, 1-(1-(4-fluoronaphthalen-1-yl)cyclohexyl)-N-methylmethanamine], the IC50 amounted to 930 nM in experiment [1] (setting [3]) and 605 nM in experiment [2] (setting [5]).

For the compound `CN(C)CC1(c2ccc3ccccc3c2)CCC(F)(F)CC1` [Compound 252, 1-(4,4-difluoro-1-(naphthalen-2-yl)cyclohexyl)-N,N-dimethylmethanamine], the IC50 in experiment [1] (setting [3]) is 11 nM and 12 nM; in experiment [2] (setting [5]), 6 nM and 5 nM.

As to `CC1(O)CCC(CN)(c2ccc3c(c2)OCO3)CC1` (stereo not drawn) [Compound 216, 4-(aminomethyl)-4-(benzo[d][1,3]dioxol-5-yl)-1-methylcyclohexanol], the IC50 in experiment [1] (setting [3]) and in experiment [2] (setting [5]) was more than 10000 nM in each case.

With `CNCC1(c2ccc(Cl)c(Cl)c2)CCCC1` [Compound 88, (1-(3,4-dichlorophenyl)cyclopentyl)-N-methylmethanamine], the figures for the IC50 in experiment [1] (Human IC50 (nM) hSERT) and in experiment [2] (setting [5]) were 829 nM and 93 nM, respectively.

As for `NCC1(c2ccc3cc(F)ccc3c2)CCCCC1` [Compound 39, (1-(6-fluoronaphthalen-2-yl)cyclohexyl)methanamine], the results for the IC50 in experiment [1] (setting [3]) and in experiment [2] (setting [5]) were 295 nM and 2240 nM, respectively.

On to `CNCC1(c2ccc(OC)cc2)CCCCC1O` (single isomer, unassigned) [139 E2, cis-2-((methylamino)methyl)-2-(4-methoxyphenyl)cyclohexanol], for which the IC50 in experiment [1] (setting [3]) and in experiment [2] (setting [5]) was more than 10000 nM throughout.

On to `Clc1ccc(C2(C3CCCN3)CCCCC2)cc1Cl` (stereo not drawn) [Compound 296, 2-(1-(3,4-dichlorophenyl)cyclohexyl)pyrrolidine], for which the IC50 in experiment [1] (setting [3]) was 73 nM; in experiment [2] (setting [5]), 27 nM.

For the compound `CC(N(C)C)C1(c2cccc3ccccc23)CCCCC1` (single isomer, unassigned) [60 E1, N,N-dimethyl-1-(1-(naphthalen-1-yl)cyclohexyl)ethanamine], the figures for the IC50 in experiment [1] (setting [3]) and in experiment [2] (setting [5]) were 184 nM and 748 nM, respectively.

As to `NCC1(c2ccc3ccccc3c2)CCC(O)CC1` (stereo not drawn) [Compound 208, 4-(aminomethyl)-4-(naphthalen-2-yl)cyclohexanol], the IC50 in experiment [1] (setting [3]) worked out at 1990 nM; in experiment [2] (setting [5]) it was 7670 nM.

For the compound `CN(C)CC1(c2ccc(OC(F)(F)F)cc2)CCC(C)(O)CC1` (stereo not drawn) [Compound 248, 4-((dimethylamino)methyl)-1-methyl-4-(4-(trifluoromethoxy)phenyl)cyclohexanol], the IC50 in experiment [1] (setting [3]) came out at 159 nM; in experiment [2] (setting [5]) it was 7250 nM.

On to `CN(C)CC1(c2ccc(Cl)c(Cl)c2)CC=CCC1` (stereo not drawn) [Compound 72, 1-(1-(3,4-dichlorophenyl)cyclohex-3-enyl)-N,N-dimethylmethanamine], for which the IC50 stood at 136 nM in experiment [1] (Human IC50 (nM) hSERT) and 1.7 nM in experiment [2] (setting [5]).

On to `CNCC1(c2ccc(Cl)c(Cl)c2)CCC(=O)CC1` [Compound 289, 4-(3,4-Dichloro-phenyl)-4-methylaminomethyl-cyclohexanone], for which the IC50 in experiment [1] (setting [3]) worked out at 469 nM; in experiment [2] (setting [5]) it was 282 nM.

For the compound `NCC1(c2ccc(Cl)c(Cl)c2)CCCC1` [Compound 87, (1-(3,4-dichlorophenyl)cyclopentyl)methanamine], the IC50 in experiment [1] (setting [6]) was 1470 nM; in experiment [2] (setting [5]), 139 nM.

Consider `CNCC1(c2ccc(Cl)c(Cl)c2)CCC(OC)CC1` (stereo not drawn) [Compound 259, 1-(1-(3,4-dichlorophenyl)-4-methoxycyclohexyl)-N-methylmethanamine], for which the IC50 in experiment [1] (setting [3]) turned out to be 5890 nM; in experiment [2] (setting [5]), 665 nM.

For the compound `CNCC1(c2ccc(Cl)c(Cl)c2)CCC1` [Compound 42, 1-(1-(3,4-dichlorophenyl)cyclobutyl)-N-methylmethanamine], the IC50 in experiment [1] (setting [3]) stood at 935 nM; in experiment [2] (setting [5]) it was 761 nM.

Turning to `CC1(O)CCCC(CN)(c2ccc(Cl)c(Cl)c2)C1` (single isomer, unassigned) [193 E2, 3-Aminomethyl-3-(3,4-dichloro-phenyl)-1-methyl-cyclohexanol], the IC50 in experiment [1] (setting [3]) was 957 nM; in experiment [2] (setting [5]), 3160 nM.

`NCC1(c2ccc(Cl)c(Cl)c2)CCCC(F)(F)C1` (stereo not drawn) [Compound 204, (1-(3,4-dichlorophenyl)-3,3-difluorocyclohexyl)-methanamine]: the IC50 in experiment [1] (setting [6]) came to 2250 nM; in experiment [2] (setting [5]), 296 nM.

With `CC(N(C)C)C1(c2ccc3ccccc3c2)CCC(C)(O)CC1` (single isomer, unassigned) [234 E2, 4-(1-(dimethylamino)ethyl)-1-methyl-4-(naphthalen-2-yl)cyclohexanol], the IC50 in experiment [1] (setting [3]) stood at 18 nM; in experiment [2] (setting [5]) it was 21 nM.

Turning to `CNC(C)C1(c2ccc3ccccc3c2)CCC(C)(O)CC1` (single isomer, unassigned) [231 E1, 1-methyl-4-(1-(methylamino)ethyl)-4-(naphthalen-2-yl)cyclohexanol], the IC50 in experiment [1] (setting [3]) amounted to 1280 nM; in experiment [2] (setting [5]), 460 nM.
